Assay results from PubChem BioAssay AID330 (DTP/NCI, 2004).
Several values for one entry are separate records, joined by “and”; a condition that tells them apart may be missing. Equal values may be shown once. Inconclusive results and toxic doses are left out.

Test system: P388 leukemia ip, CD2F1 mice, survival T/C
Test: NCI In Vivo Anticancer Drug Screen. Data for tumor model P388 Leukemia (intraperitoneal) in CD2F1 (CDF1) mice
Conditions: endpoint: median survival time, higher = longer survival
How it was run: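 Mice carrying the transplanted tumor received test compound or vehicle. Survival was recorded in each group, and the value is the treated-group measurement divided by that of the vehicle-treated control group.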

[1] = dose: 100.0 mg/kg/injection, schedule: Q01DX009 (ip), vehicle: saline
[2] = dose: 200.0 mg/kg/injection, schedule: Q01DX009 (ip), vehicle: saline
[3] = dose: 50.0 mg/kg/injection, schedule: Q01DX009 (ip), vehicle: saline
[4] = dose: 50.0 mg/kg/injection, schedule: Q01DX005 (ip), vehicle: Klucel (hydroxypropylcellulose) (HPC)
[5] = dose: 100.0 mg/kg/injection, schedule: Q01DX005 (ip), vehicle: Klucel (hydroxypropylcellulose) (HPC)
[6] = dose: 200.0 mg/kg/injection, schedule: Q01DX005 (ip), vehicle: Klucel (hydroxypropylcellulose) (HPC)
[7] = dose: 12.5 mg/kg/injection, schedule: Q01DX009 (ip), vehicle: saline
[8] = dose: 25.0 mg/kg/injection, schedule: Q01DX009 (ip), vehicle: saline
[9] = dose: 50.0 mg/kg/injection, schedule: Q01DX009 (ip), vehicle: saline with Tween-80
[10] = dose: 100.0 mg/kg/injection, schedule: Q01DX009 (ip), vehicle: saline with Tween-80
[11] = dose: 200.0 mg/kg/injection, schedule: Q01DX009 (ip), vehicle: saline with Tween-80
[12] = dose: 60.0 mg/kg/injection, schedule: Q01DX005 (ip), vehicle: saline with Tween-80
[13] = dose: 120.0 mg/kg/injection, schedule: Q01DX005 (ip), vehicle: saline with Tween-80
[14] = dose: 240.0 mg/kg/injection, schedule: Q01DX005 (ip), vehicle: saline with Tween-80
[15] = dose: 50.0 mg/kg/injection, schedule: Q01DX009 (ip), vehicle: Klucel (hydroxypropylcellulose) (HPC)
[16] = dose: 100.0 mg/kg/injection, schedule: Q01DX009 (ip), vehicle: Klucel (hydroxypropylcellulose) (HPC)
[17] = dose: 200.0 mg/kg/injection, schedule: Q01DX009 (ip), vehicle: Klucel (hydroxypropylcellulose) (HPC)

For `O=P(O)(O)Oc1ccc(NCCO)cc1`, the T/C (dose: 50.0 mg/kg/injection, schedule: Q01DX001 (ip), vehicle: saline) was 107 % of control, the T/C (dose: 100.0 mg/kg/injection, schedule: Q01DX001 (ip), vehicle: saline) was 99 % of control and the T/C (dose: 200.0 mg/kg/injection, schedule: Q01DX001 (ip), vehicle: saline) was 100 % of control. For the same compound, the T/C (dose: 400.0 mg/kg/injection, schedule: Q01DX001 (ip), vehicle: saline) was 100 % of control.

In the case of `NC(N)=NS(=O)(=O)c1ccc(N=NC2C(=O)N(c3ccc(Cl)cc3)C(=S)N(c3ccc(Cl)cc3)C2=O)cc1`, the T/C (dose: 25.0 mg/kg/injection, schedule: Q01DX005 (ip), vehicle: saline) is reported as 103 % of control, the T/C (dose: 50.0 mg/kg/injection, schedule: Q01DX005 (ip), vehicle: saline) is reported as 106 % of control and 117 % of control and the T/C (dose: 100.0 mg/kg/injection, schedule: Q01DX005 (ip), vehicle: saline) is reported as 104 % of control and 124 % of control. The T/C (dose: 200.0 mg/kg/injection, schedule: Q01DX005 (ip), vehicle: saline) was 108 % of control.

In the case of `COc1ccc(CO)cc1O`, the T/C [1] is reported as 105 % of control and 97 % of control, the T/C [2] is reported as 104 % of control and 107 % of control and the T/C (dose: 400.0 mg/kg/injection, schedule: Q01DX009 (ip), vehicle: saline) is reported as 104 % of control. For the same compound, the T/C (dose: 600.0 mg/kg/injection, schedule: Q01DX009 (ip), vehicle: saline) was 95 % of control and 96 % of control.

With `O=C([O][Hg][C](F)(F)F)C(F)(F)F` the T/C (dose: 1.56 mg/kg/injection, schedule: Q04DX003 (ip), vehicle: saline) was 104 % of control and the T/C (dose: 3.13 mg/kg/injection, schedule: Q04DX003 (ip), vehicle: saline) was 101 % of control.

For `COc1cc2c(=O)n3c4c(cccc4c2cc1OC)CCC3`, the T/C (dose: 25.0 mg/kg/injection, schedule: Q01DX009 (ip), vehicle: other) was 94 % of control, the T/C (dose: 50.0 mg/kg/injection, schedule: Q01DX009 (ip), vehicle: other) was 90 % of control and the T/C (dose: 100.0 mg/kg/injection, schedule: Q01DX009 (ip), vehicle: other) was 87 % of control. For the same compound, the T/C (dose: 200.0 mg/kg/injection, schedule: Q01DX009 (ip), vehicle: other) was 92 % of control and the T/C (dose: 400.0 mg/kg/injection, schedule: Q01DX009 (ip), vehicle: other) was 100 % of control.

For `Cc1cc(NC(=S)SC(C)C)ccc1Cl`, the T/C [3] was 99 % of control, the T/C [1] was 102 % of control and the T/C [2] was 102 % of control.

`O=C(O)C(Cc1ccccc1)Nc1ncnc2nc[nH]c12` (configuration not stated) was tested, and the T/C [4] was 93 % of control, the T/C [5] was 100 % of control and the T/C [6] was 100 % of control.

For `COC1NC(=S)N(C(C)(C)C)C1(C)C` (configuration not stated), the T/C [7] was 99 % of control, the T/C [8] was 100 % of control and the T/C [3] was 107 % of control. For the same compound, the T/C (dose: 50.0 mg/kg/injection, schedule: Q01DX009 (ip), vehicle: suspension in saline) was 97 % of control.

For `O=CNNC(=S)Nc1ccccc1`, the T/C [9] was 113 % of control, the T/C [10] was 109 % of control and the T/C [11] was 108 % of control.

In the case of `COC(=O)C1=C(C(=O)OC)[C]([Hg][CH3])(C(C)=O)N=N1` (configuration not stated), the T/C (dose: 1.56 mg/kg/injection, schedule: Q01DX009 (ip), vehicle: saline) is reported as 88 % of control, the T/C (dose: 3.12 mg/kg/injection, schedule: Q01DX009 (ip), vehicle: saline) is reported as 88 % of control and the T/C (dose: 6.25 mg/kg/injection, schedule: Q01DX009 (ip), vehicle: saline) is reported as 93 % of control. For the same compound, the T/C [7] was 106 % of control.

In the case of `CC(=O)CC(C)=NCC(C)N=C(C)CC(C)=O.c1cc[c]([Sn][c]2ccccc2)cc1` (configuration not stated), the T/C (dose: 2.5 mg/kg/injection, schedule: Q01DX009 (ip), vehicle: saline) is reported as 154 % of control, the T/C (dose: 5.0 mg/kg/injection, schedule: Q01DX009 (ip), vehicle: saline) is reported as 158 % of control and 162 % of control and the T/C (dose: 10.0 mg/kg/injection, schedule: Q01DX009 (ip), vehicle: saline) is reported as 185 % of control.

`CN(C)C(=O)CC/C=C/C1C=CCCN1Cc1ccccc1` (configuration not stated) was tested, and the T/C (dose: 8.75 mg/kg/injection, schedule: Q01DX005 (ip), vehicle: Klucel (hydroxypropylcellulose) (HPC)) was 103 % of control, the T/C (dose: 17.5 mg/kg/injection, schedule: Q01DX005 (ip), vehicle: Klucel (hydroxypropylcellulose) (HPC)) was 100 % of control and the T/C (dose: 35.0 mg/kg/injection, schedule: Q01DX005 (ip), vehicle: Klucel (hydroxypropylcellulose) (HPC)) was 100 % of control.

With `O=C(O)CC(O)(CC(=O)O)C(=O)O.O=C(O)CC(O)(CC(=O)O)C(=O)O.[O]=[Mo]1[O][Mo](=[O])[O]1` the T/C [8] was 93 % of control.

With `Nc1ncnc2c1c(-c1ccc(Cl)cc1)cn2-c1ccccc1` the T/C [12] was 100 % of control, the T/C [13] was 96 % of control and the T/C [14] was 90 % of control.

With `Cc1c2c(c(C)c3c1C(=O)c1cc4c(cc1C3=O)OCO4)OCO2` the T/C [12] was 92 % of control, the T/C [13] was 99 % of control and the T/C [14] was 102 % of control.

For `OC(Nc1ncccn1)C(Cl)(Cl)Cl` (configuration not stated), the T/C [9] was 104 % of control, the T/C [10] was 100 % of control and the T/C [11] was 100 % of control.

In the case of `CN(C)c1cc(N(C)C)c2cc(-c3ccccc3)sc2n1`, the T/C [15] is reported as 98 % of control, the T/C [16] is reported as 103 % of control and the T/C [17] is reported as 96 % of control.

`Cc1ccc(S(=O)(=O)ON=C2CC(c3ccccc3)N(C)C(c3ccccc3)C2)cc1` (configuration not stated) was tested, and the T/C [4] was 116 % of control and 101 % of control, the T/C [5] was 107 % of control and 104 % of control and the T/C [6] was 100 % of control.

With `C/C(=N\OC(=O)c1c(-c2c(Cl)cccc2Cl)noc1C)c1ccccc1O` the T/C [3] was 91 % of control, the T/C [1] was 94 % of control and the T/C [2] was 93 % of control.

For `O=C(O)C1C(C(=O)O)C2(Cl)C(Cl)=C(Cl)C1(Cl)C2(Cl)Cl.[Mn]` (configuration not stated), the T/C (dose: 50.0 mg/kg/injection, schedule: Q04DX003 (ip), vehicle: saline sonified) was 95 % of control and the T/C (dose: 100.0 mg/kg/injection, schedule: Q04DX003 (ip), vehicle: saline sonified) was 91 % of control.

For `Cc1c(NC(=O)Nc2ccc(F)cc2[N+](=O)[O-])c(=O)n(-c2ccccc2)n1C`, the T/C [9] was 109 % of control, the T/C [10] was 112 % of control and the T/C [11] was 97 % of control.

For `CC(C)SCNc1ncnc2c1ncn2C1OC(CO)C(O)C1O` (configuration not stated), the T/C (dose: 100.0 mg/kg/injection, schedule: Q04DX002 (ip), vehicle: saline with Tween-80) was 98 % of control.

`CC(=O)Oc1ccc(OC(C)=O)c2c1CC1OC1C2` (configuration not stated) was tested, and the T/C (dose: 3.13 mg/kg/injection, schedule: Q01DX009 (ip), vehicle: water) was 100 % of control, the T/C (dose: 6.25 mg/kg/injection, schedule: Q01DX009 (ip), vehicle: water) was 98 % of control and the T/C (dose: 12.5 mg/kg/injection, schedule: Q01DX009 (ip), vehicle: water) was 100 % of control. The T/C (dose: 25.0 mg/kg/injection, schedule: Q01DX009 (ip), vehicle: water) was 90 % of control, the T/C (dose: 50.0 mg/kg/injection, schedule: Q01DX009 (ip), vehicle: water) was 100 % of control and the T/C (dose: 100.0 mg/kg/injection, schedule: Q01DX009 (ip), vehicle: distilled water + Tween-80) was 111 % of control. For the same compound, the T/C (dose: 200.0 mg/kg/injection, schedule: Q01DX009 (ip), vehicle: distilled water + Tween-80) was 111 % of control and the T/C (dose: 400.0 mg/kg/injection, schedule: Q01DX009 (ip), vehicle: distilled water + Tween-80) was 100 % of control.

For `CSc1nnc(CCC(=O)Nc2cc(Cl)ccc2Cl)o1`, the T/C [12] was 109 % of control, the T/C [13] was 100 % of control and the T/C [14] was 97 % of control.

For `Cc1cc([N+](=O)[O-])ccc1NC(=O)n1nnc2cc(Cl)ccc21`, the T/C [15] was 98 % of control, the T/C [16] was 98 % of control and the T/C [17] was 107 % of control.

For `O=C1c2ccccc2-c2c1c1ccccc1c(=O)n2-c1cccnc1`, the T/C (dose: 50.0 mg/kg/injection, schedule: Q01DX005 (ip), vehicle: saline with Tween-80) was 111 % of control, the T/C (dose: 100.0 mg/kg/injection, schedule: Q01DX005 (ip), vehicle: saline with Tween-80) was 101 % of control and the T/C (dose: 200.0 mg/kg/injection, schedule: Q01DX005 (ip), vehicle: saline with Tween-80) was 97 % of control.

For `CCn1c(C)nc2c(N)cc(C(F)(F)F)cc21` (tested in a mixture with another compound), the T/C (dose: 30.0 mg/kg/injection, schedule: Q01DX005 (ip), vehicle: Klucel (hydroxypropylcellulose) (HPC)) was 95 % of control, the T/C (dose: 60.0 mg/kg/injection, schedule: Q01DX005 (ip), vehicle: Klucel (hydroxypropylcellulose) (HPC)) was 100 % of control and the T/C (dose: 120.0 mg/kg/injection, schedule: Q01DX005 (ip), vehicle: Klucel (hydroxypropylcellulose) (HPC)) was 99 % of control.
